Experiments:
Type in all cases: in vivo
[1] = test system: diamondback moth (Plutella xylostella); assay: Insecticidal effect on diamondback moth (Test Example 1); details: diamondback moth; judged by the criterion of Test Example 1
How it was run: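 Oviposition by adults on Chinese cabbage seedling; immersion; air-dry; 25° C room. Count of hatched larvae at day 6 post-immersion → mortality → effect graded by criterion. Triplicate, 10 insects/group.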

[2] = test system: common cutworm (Spodoptera Litura); assay: Insecticidal effect on common cutworm (Test Example 2); details: 500 ppm, cabbage leaf dip, second-instar larvae of common cutworm, 8 days after inoculation, 25° C.
How it was run: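 2nd-instar larvae on air-dried treatment, closed dish, 25° C; dead/alive counted at day 8. Mortality calculated, graded by criterion. 3 × 10 insects.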

[3] = test system: rice leafroller (Cnaphalocrocis medinalis); assay: Insecticidal effect on rice leafroller (Test Example 3); details: 500 ppm, rice lamina dip, third-instar larvae of rice leafroller, 4 days after inoculation, 25° C., humidity 70%
How it was run: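 Insecticidal effect is judged by a predefined criterion from dead/alive counts four days after infesting air-dried lamina with third-instar larvae, kept on moistened filter paper at 25° C, 70% humidity.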

Structure (SMILES)	Insecticidal effect (Test Example 1), judged from mortality [1]	Insecticidal effect (Test Example 2), judged from mortality [2]	Insecticidal effect (Test Example 3), judged from mortality [3]
CCC(C)(C)NC(=O)c1c(I)cccc1C(=O)Nc1ccc(OC(F)F)cc1C [compound 1568]	A (100)	A (100)	A (100)
C=CC(C)(C)NC(=O)c1c(Cl)cccc1C(=O)Nc1ccc(C(F)(F)C(F)(F)F)cc1C [compound 1569]	A (100)	A (100)	A (100)
Cc1cc(C(F)(F)C(F)(F)F)ccc1NC(=O)c1cccc(Cl)c1C(=O)NC(C)(C)C#Cc1ccc(Cl)cc1Cl [compound 1571]	A (100)	A (100)	A (100)
COc1ccc(C#CC(C)(C)NC(=O)c2c(Cl)cccc2C(=O)Nc2ccc(C(F)(F)C(F)(F)F)cc2C)cc1 [compound 1572]	A (100)	A (100)	A (100)
CCCN(CC)C(=O)c1c(I)cccc1C(=O)Nc1ccc(C(F)(F)C(F)(F)F)cc1C [compound 1573]	A (100)	A (100)	A (100)
CCCN(CC)C(=O)c1c(I)cccc1C(=O)Nc1ccc(OC(F)(F)F)cc1C [compound 1574]	A (100)	A (100)	A (100)
Cc1cc(C(F)(F)C(F)(F)F)ccc1NC(=O)c1cccc(Cl)c1C(=O)NCc1ccc(OC(F)(F)F)cc1 [compound 1576]	A (100)	D (79-50)	A (100)
CC(C)NC(=O)c1c(I)cccc1C(=O)Nc1ccc(C(F)(F)C(F)(F)F)cc1Br [compound 1580]	A (100)	A (100)	A (100)
CCCN(CC)C(=O)c1c(F)cccc1C(=O)Nc1ccc(C(F)(F)C(F)(F)F)cc1C [compound 1581]	A (100)	A (100)	A (100)
Cc1cc(C(F)(F)C(F)(F)F)ccc1NC(=O)c1cccc(Cl)c1C(=O)NC(C)(C)C#Cc1ccc(C(F)(F)F)cc1 [compound 1585]	A (100)	A (100)	A (100)
Cc1cc(C(F)(F)C(F)(F)F)ccc1NC(=O)c1cccc(Cl)c1C(=O)NC(C)(C)C#Cc1c(Cl)cccc1Cl [compound 1586]	A (100)	C (89-80)	A (100)
Cc1cc(C(F)(F)C(F)(F)F)ccc1NC(=O)c1cccc(Cl)c1C(=O)NC(C)(C)C#Cc1ccccn1 [compound 1587]	A (100)	A (100)	A (100)
Cc1cc(C(F)(F)C(F)(F)F)ccc1NC(=O)c1cccc(Cl)c1C(=O)NC(C)(C)C#Cc1cccnc1 [compound 1590]	A (100)	A (100)	A (100)
C#CC(C)(C)NC(=O)c1c(Cl)cccc1C(=O)Nc1ccc(OC(F)(F)F)cc1C [compound 1602]	A (100)	A (100)	A (100)
Cc1cc(C(F)(F)C(F)(F)F)ccc1NC(=O)c1cccc(Cl)c1C(=O)NC(C)(C)/C=C/c1ccccc1 [compound 1604]	A (100)	A (100)	A (100)
CCN(CC)C(=O)c1c(I)cccc1C(=O)Nc1ccc(-c2ccc(F)cc2)cc1C [compound 1614]	A (100)	C (89-80)	A (100)
CCN(CC)C(=O)c1c(I)cccc1C(=O)Nc1ccc(-c2ccc(Cl)cc2)cc1C [compound 1615]	A (100)	A (100)	A (100)

Structure (SMILES)	Insecticidal effect (Test Example 1), judged from mortality [1]	Insecticidal effect (Test Example 2), judged from mortality [2]	Insecticidal effect (Test Example 3), judged from mortality [3]
Cc1cc(Oc2ncccn2)ccc1NC(=O)c1cccc(I)c1C(=O)NC(C)C [compound 1618]	A (100)	C (89-80)	A (100)
CC(C)NC(=O)c1c(I)cccc1C(=O)Nc1cc2c(cc1Cl)OC(F)(F)O2 [compound 1622]	A (100)	A (100)	A (100)
CC(C)NC(=O)c1c(Cl)cccc1C(=O)Nc1cc2c(cc1Cl)OC(F)(F)O2 [compound 1623]	A (100)	C (89-80)	A (100)
CC(C)(C)NC(=O)c1c(I)cccc1C(=O)Nc1cc2c(cc1Cl)OC(F)(F)O2 [compound 1624]	A (100)	D (79-50)	A (100)
CC(C)NC(=O)c1c(I)cccc1C(=O)Nc1cc2c(cc1Cl)OC(F)(F)C(F)(F)O2 [compound 1625]	A (100)	A (100)	A (100)
Cc1cc(OC(F)(F)F)ccc1NC(=O)c1cccc(I)c1C(=O)NC(C)(C)CCl [compound 1627]	A (100)	A (100)	A (100)
Cc1cc(C(F)(F)C(F)(F)F)ccc1NC(=O)c1cccc(Cl)c1C(=O)NC(C)(C)C#Cc1ccsc1 [compound 1628]	A (100)	A (100)	A (100)
C#CC(C)(C)NC(=O)c1c(I)cccc1C(=O)Nc1ccc(C(F)(F)C(F)(F)F)cc1C [compound 1629]	A (100)	A (100)	A (100)
Cc1cc(C(F)(F)C(F)(F)F)ccc1NC(=O)c1cccc(Cl)c1C(=O)NC(C)(C)C#Cc1ccc(OC(F)(F)F)cc1 [compound 1633]	A (100)	A (100)	A (100)
C#CC(C)(C)NC(=O)c1c(I)cccc1C(=O)Nc1ccc(OC(F)(F)F)cc1C [compound 1634]	A (100)	A (100)	A (100)
C#CC(C)(C)NC(=O)c1c(I)cccc1C(=O)Nc1ccc(OC(F)F)cc1C [compound 1635]	A (100)	A (100)	A (100)
CC(C)NC(=O)c1c(I)cccc1C(=O)Nc1ccc2nc(C(F)(F)C(F)(F)C(F)(F)F)oc2c1 [compound 1636]	A (100)	D (79-50)	A (100)
CC(C)NC(=O)c1c(I)cccc1C(=O)Nc1ccc2oc(C(F)(F)C(F)(F)C(F)(F)F)nc2c1 [compound 1637]	A (100)	A (100)	A (100)
CC(C)NC(=O)c1c(Cl)cccc1C(=O)Nc1ccc2oc(C(F)(F)C(F)(F)C(F)(F)F)nc2c1 [compound 1638]	A (100)	A (100)	A (100)
CC(C)(C)NC(=O)c1c(I)cccc1C(=O)Nc1ccc2oc(C(F)(F)C(F)(F)C(F)(F)F)nc2c1 [compound 1639]	A (100)	A (100)	A (100)
CC(C)NC(=O)c1c(Cl)cccc1C(=O)Nc1ccc2c(c1Cl)OC(F)(F)C(F)(F)O2 [compound 1642]	A (100)	A (100)	A (100)
CC(C)(C)NC(=O)c1c(I)cccc1C(=O)Nc1ccc2c(c1Cl)OC(F)(F)C(F)(F)O2 [compound 1644]	A (100)	A (100)	A (100)

— patent US6362369B1, “Phthalic acid diamide derivatives fluorine-containing aniline compounds as starting material, agricultural and horticultural insecticides, and a method for application of the insecticides” (Nihon Nohyaku Co., Ltd., priority 1997, dated 2002)
